From ChEMBL document CHEMBL1201862, “PubChem BioAssay data set” (2004)
Values joined by “and” are separate entries in the source; they are usually repeats but may differ in a detail not shown here. Equal entries are not always repeated.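 Results reflect a 48-hour exposure of cells in 96-well plates to compound at five concentrations. GI50 is the concentration that inhibits growth by half.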 Active and inactive are the calls of the source. Rule as the data show it: active = GI50 up to about 1.1 µM and inactive = higher. Starred links: 1 amine or outer side, 2 acyl side, 3 side chain; linkers in the order of their positions; H or OH if unused. *1 amine or outer side, *2 acyl side, *3 side chain or, on linkers, in order; H or OH if unused. Positions of bridges follow the written chain, without caps; N, C: chain ends. Where a SMILES comes first, the peptide text is derived from it. Non-standard residues stand in square brackets, D forms with d. Residues, ends and D or L forms follow the SMILES beside them. Bridges are numbered along the chain shown (N, C = ends). Roman numbers before positions name the chains, in order. Chains are numbered I, II in the order given. [ ]: non-standard residue; d: D form. Actinocin(1to9) = Cc1c2oc3c(C)ccc(C(=O)[*:2])c3nc-2c(C(=O)[*:1])c(N)c1=O; Actinocin(9to1) = Cc1c2oc3c(C)ccc(C(=O)[*:1])c3nc-2c(C(=O)[*:2])c(N)c1=O; NMeY = CN[CH](Cc1ccc(O)cc1)C(=O)O; Sar = CNCC(=O)O

What was measured:
Experiment in all cases: NCI tumour cell line growth inhibition, 48 h
[1] = test system: A498
[2] = test system: A549
[3] = test system: BT-549
[4] = test system: COLO 205
[5] = test system: HCC 2998
[6] = test system: HCT-116
[7] = test system: HL-60
[8] = test system: Hs-578T
[9] = test system: LOX IMVI
[10] = test system: M14
[11] = test system: MCF7
[12] = test system: MDA-MB-435
[13] = test system: MDA-N
[14] = test system: Malme-3M
[15] = test system: NCI-H226
[16] = test system: NCI-H460
[17] = test system: NCI-H522
[18] = test system: NCI/ADR-RES
[19] = test system: OVCAR-4
[20] = test system: RPMI-8226
[21] = test system: SF-268
[22] = test system: SK-MEL-5
[23] = test system: SNB-19
[24] = test system: SW-620
[25] = test system: U-251
[26] = test system: 786-0
[27] = test system: CAKI-1
[28] = test system: EKVX
[29] = test system: K562
[30] = test system: NCI-H23
[31] = test system: OVCAR-5
[32] = test system: OVCAR-8
[33] = test system: SF-539
[34] = test system: SK-MEL-2
[35] = test system: SK-OV-3
[36] = test system: SR
[37] = test system: T47D
[38] = test system: UACC-62
[39] = test system: UO-31
[40] = test system: IGROV-1
[41] = test system: KM12
[42] = test system: SN12C
[43] = test system: ACHN
[44] = test system: DU-145
[45] = test system: HOP-62
[46] = test system: OVCAR-3
[47] = test system: PC-3
[48] = test system: SF-295
[49] = test system: SK-MEL-28
[50] = test system: SNB-75
[51] = test system: UACC-257

| Compound | GI50 [1] | GI50 [2] | GI50 [3] | GI50 [4] | GI50 [5] | GI50 [7] | GI50 [8] | GI50 [9] | GI50 [11] | GI50 [12] | GI50 [13] | GI50 [14] | GI50 [15] | GI50 [16] | GI50 [17] | GI50 [19] | GI50 [20] | GI50 [22] | GI50 [23] | GI50 [33] | also measured |
| --- | --- | --- | --- | --- | --- | --- | --- | --- | --- | --- | --- | --- | --- | --- | --- | --- | --- | --- | --- | --- | --- |
| O=C(O)c1ccccc1/N=N\c1c(O)c(S(=O)(=O)O)cc2cc(S(=O)(=O)O)ccc12 | > 100 µM (inactive) | 1820 nM (inactive) | 201 nM (active) | 1200 nM (inactive) | > 100 µM (inactive) | < 10 nM (active) | 1.97 µM (inactive) | > 100000 nM (inactive) | > 100 µM (inactive) | 2650 nM (inactive) | 2410 nM (inactive) | 71.1 nM (active) | 23.9 nM (active) | > 100000 nM (inactive) | 23.1 nM (active) | 96.2 nM (active) | 1.35 µM (inactive) | 4720 nM (inactive) | 2810 nM (inactive) | – | GI50 [6]: 1630 nM (inactive); GI50 [10]: 3830 nM (inactive); GI50 [18]: 1060 nM (active); GI50 [21]: 1.8 µM (inactive); GI50 [24]: 1.85 µM (inactive); GI50 [25]: 1480 nM (inactive) |
| CCN(CC)C(=S)SS(=O)(=O)c1ccc([N+](=O)[O-])cc1 | > 100 µM (inactive) | 1180 nM (inactive) | 36800 nM (inactive) | 19900 nM (inactive) | – | – | – | 17500 nM (inactive) | – | – | – | 14900 nM (inactive) | – | 96200 nM (inactive) | 28.2 nM (active) | – | 12.8 µM (inactive) | 2770 nM (inactive) | 76700 nM (inactive) | 21.2 µM (inactive) | GI50 [26]: 16700 nM (inactive); GI50 [27]: 18800 nM (inactive); GI50 [28]: > 100000 nM (inactive); GI50 [29]: 19400 nM (inactive); GI50 [30]: 56800 nM (inactive); GI50 [31]: > 100000 nM (inactive); GI50 [32]: 20400 nM (inactive); GI50 [34]: 48.3 µM (inactive); GI50 [35]: > 100000 nM (inactive); GI50 [36]: 148 nM (active); GI50 [37]: 43200 nM (inactive); GI50 [25]: 14500 nM (inactive); GI50 [38]: 27400 nM (inactive); GI50 [39]: 21700 nM (inactive) |
| Cc1c2oc3c(C)ccc(C(=O)NC4C(=O)NC(C(C)C)C(=O)N5CCCC5C(=O)N(C)CC(=O)N(C)C(Cc5ccc(O)cc5)C(=O)OC4C)c3nc-2c(C(=O)NC2C(=O)NC(C(C)C)C(=O)N3CCCC3C(=O)N(C)CC(=O)N(C)C(Cc3ccc(O)cc3)C(=O)OC2C)c(N)c1=O (centres undefined) (I: TVP[Sar][NMeY] / II: TVP[Sar][NMeY]; ester I:1-I:C, II:1-II:C; linker I:N-II:N via Actinocin(9to1); configuration not given here) | – | – | 15 nM (active) and 17.3 nM (active) | – | – | 4.3 nM (active) and 5.39 nM (active) | 3.71 nM (active) and 4.25 nM (active) | – | 1.89 nM (active) and 2.16 nM (active) | – | – | – | 20.6 nM (active) and 39.3 nM (active) | – | 2.25 nM (active) and 4.33 nM (active) | 43 nM (active) and 42.6 nM (active) | 8.59 nM (active) and 7.03 nM (active) | – | – | 12.4 nM (active) and 15.3 nM (active) | GI50 [40]: 6.05 nM (active) and 7.46 nM (active); GI50 [41]: 13.2 nM (active) and 17.1 nM (active); GI50 [21]: 11 nM (active) and 17.7 nM (active); GI50 [34]: 9.06 nM (active) and 13.1 nM (active); GI50 [42]: 5.69 nM (active) and 11 nM (active) |
| COc1ccc(CC2C(=O)OC(C)C(NC(=O)c3c4nc5c(C(=O)NC6C(=O)NC(C(C)C)C(=O)N7CCCC7C(=O)N(C)CC(=O)N(C)C(Cc7ccc(OC)cc7)C(=O)OC6C)ccc(C)c5oc-4c(C)c(=O)c3N)C(=O)NC(C(C)C)C(=O)N3CCCC3C(=O)N(C)CC(=O)N2C)cc1 (centres undefined) (I: TVP[Sar][NMeY](Me) / II: TVP[Sar][NMeY](Me); ester I:1-I:C, II:1-II:C; linker I:N-II:N via Actinocin(1to9); configuration not given here) | < 10 nM (active) and 14.9 nM (active) | 5.27 nM (active) | 20.8 nM (active) | – | < 10 nM (active) and 8.04 nM (active) | – | – | – | – | 9.23 nM (active) | 8.11 nM (active) | < 10 nM (active) and 10.6 nM (active) | < 10 nM (active) and 14.9 nM (active) | – | – | < 10 nM (active) | 0.0121 µM (active) | 11.9 nM (active) | 6.37 nM (active) | < 10 nM (active) and 7.08 nM (active) | GI50 [43]: 10.2 nM (active); GI50 [44]: 12.1 nM (active); GI50 [45]: 9.53 nM (active); GI50 [41]: 5.16 nM (active); GI50 [30]: 10.4 nM (active); GI50 [46]: < 10 nM (active) and 9.44 nM (active); GI50 [32]: 8.59 nM (active); GI50 [47]: < 10 nM (active) and 10 nM (active); GI50 [48]: 19.9 nM (active); GI50 [49]: 9.64 nM (active); GI50 [42]: 5.3 nM (active); GI50 [50]: 7.64 nM (active); GI50 [24]: < 10 nM (active) and 13.6 nM (active); GI50 [37]: 9.4 nM (active); GI50 [51]: 15.5 nM (active); GI50 [38]: 10.7 nM (active) |
